Test: Human HepG2 cell viability assay in 384 well format
Assay type: toxicity, cell-based
Set-up: dose 125 nL, time 70.5 hour; cytotoxicity at 70.5 h: concentration not given beside the values
Conditions: HepG2 cells, read-out: Inhibition

SMILES | cytotoxicity at 70.5 h [%]
CCN(CC1CN(CCc2ccccn2)CCO1)c1cccnn1 (stereo unspecified) | -3.03
COCc1noc(C2(c3ccc(F)cc3)CCOCC2)n1 | 28.8
O=C(NCC1(N2CCOCC2)CCSC1)Nc1ccc(F)cc1 (stereo unspecified) | -6.94
CCn1cc(NC(=O)NCC2(N3CCOCC3)CCSC2)cn1 (stereo unspecified) | -1.94
O=C(NCc1nnc2n1CCC2)N(Cc1ccco1)C1CC1 | -10.5
COc1ccnc(N2CCN(C(=O)CCc3nccs3)CC2)n1 | -10.9
Cc1ccccc1C(=O)NCc1ccc(N2CCNC(=O)C2)c(F)c1 | -8
CCCn1c(C)cc(C(=O)CN2C(=O)c3ccccc3CS2(=O)=O)c1C | -10.8
Cc1cc(C)n(CC2CCCN2CCCS(=O)(=O)N(C)C)n1 (stereo unspecified) | -9.4
CCc1nc(COc2ccc(OCc3cnn(C)c3)cc2)no1 | -2.52
COCc1noc(C2(c3ccc(Br)cc3)CCOCC2)n1 | -10.1
O=C(NCc1nnc2n1CCCC2)N(Cc1ccccc1F)C1CC1 | -11.1
CCc1noc(CNc2ccc(F)cc2OCC2CC2)n1 | -7.55
CS(=O)(=O)CCC(=O)NC1(c2cccc(Br)c2)CC1 | -8.28
CN(Cc1ccco1)Cc1ccccc1CNC(=O)c1cc[nH]n1 | -6.12
O=C(Nc1ccc(CCN2CCC(O)CC2)cc1)Nc1cccnc1 | -1.85
CC(c1ccc(Cl)cc1)N1CCN(CCNS(C)(=O)=O)CC1 (stereo unspecified) | -0.037
c1ccc(-c2cc(CN3CCC(c4ccn[nH]4)CC3)on2)cc1 | -7.56
CCN(CCC(F)(F)F)C(=O)Nc1cccc(N2CCOCC2)c1 | -7.71
N#CCCCS(=O)(=O)N1CCCC1CC(=O)c1cccs1 (stereo unspecified) | -6.62
CCC(CNC(=O)c1ccc(Br)o1)N1CCc2ccccc2C1 (stereo unspecified) | -7.37
COCCn1nc(C(=O)N2CCCC2c2cccc(F)c2)ccc1=O (stereo unspecified) | -8.14
CC(=O)c1cccc(OCCCC(=O)N(C)Cc2ccccn2)c1 | -2.88

SMILES | cytotoxicity at 70.5 h [%]
COc1ccc(C(C)=O)c(OCC(=O)NC(C)c2ccc(F)cc2)c1 (stereo unspecified) | -14.9
CCc1nnsc1C(=O)NC1CCN(c2ccccn2)CC1 | 11.2
CN1CCN(Cc2ccccc2CNC(=O)c2ccc(Br)cc2F)CC1 | -4.3
Cc1noc(C)c1CCC(=O)NC(C)c1nnc2n1CCC2 (stereo unspecified) | 8.52
Cc1ccc(C(C)NC(=O)Nc2ccccc2CN2CCOCC2)o1 (stereo unspecified) | -11.2
CN(C(=O)C1CSCN1S(=O)(=O)c1ccc(F)cc1)C1CC1 (stereo unspecified) | -9.65
CC(C)C(C)NC(=O)Nc1ccccc1CN1CCOCC1 (stereo unspecified) | -8.46
c1cc(CNCc2ccnc(N3CCOCC3)c2)c2c(c1)OCCO2 | -9.77
CC(=O)N(C)CC(=O)Nc1cccc(N2CCN(CC3CC3)CC2)c1 | -7.37
Cc1cn(CC(=O)NC2CCN(C(=O)C3CC3)CC2)c2ccccc12 | -9.4
Cc1cc2n(n1)CC(CNC1CCN(c3ccc(F)cc3)CC1)CN2 (stereo unspecified) | -5.25
COCc1cccc(NC(C)C(=O)N(C)Cc2cccc(F)c2)c1 (stereo unspecified) | -2.97
COc1ccc(CNC(=O)CNc2cc3c(cc2Cl)OCCCO3)cc1 | -5.19
CCc1ccc(C(=O)NC2CCN(c3cnn(C)c3)C2=O)o1 (stereo unspecified) | -9
CCC(CC)c1cc(CNC(=O)N2CCOC(C)C2)on1 (stereo unspecified) | -9.44
O=C1CC2(CCCCC2)CC(=O)N1CC(O)COCc1ccc(Cl)cc1 (stereo unspecified) | -6.34
CCOC(=O)NC(CNC(=O)CCc1ccccn1)CC(C)C (stereo unspecified) | -8.82
Cc1cc2c(cc1C)C(NCc1nnc3n1CCCCC3)CCCO2 (stereo unspecified) | -7.63
Cc1ccc2c(c1)OCCCC2NCc1nnc2n1CCCCC2 (stereo unspecified) | -6.04
CCN1CCN(c2ccc(F)cc2C(C)NCc2noc(C)n2)CC1 (stereo unspecified) | -7.42
CC(O)CN1CCN(C(=O)CN(C)c2cnccn2)CC1 (stereo unspecified) | -8.51
CC(O)CN1CCN(C(=O)CN(C)c2ccc(Cl)cn2)CC1 (stereo unspecified) | -12.2
CC(CNC(=O)c1ccc(Cl)cc1I)N1CCCC1 (stereo unspecified) | -8.19

SMILES | cytotoxicity at 70.5 h [%]
Clc1ccc2oc(C3CCN(Cc4cccnc4)CC3)nc2c1 | 22.9
O=C(NCC(=O)N1CCCCC1)c1ccc(Cl)cc1I | -10.6
N#Cc1cccnc1NCCNC(=O)N1CCCC(C(F)(F)F)C1 (stereo unspecified) | -11.9
CN(Cc1ccc(Cl)s1)C(=O)c1cccc(OCC(N)=O)c1 | -15.3
O=C(NCCNc1ncccn1)N1CCCC(C(F)(F)F)C1 (stereo unspecified) | -9.23
O=C(Cc1ccc(F)cc1)NCCNCC1CNc2ccnn2C1 (stereo unspecified) | 16.6
CC(C(=O)NCc1ccnc(N(C)C)c1)n1cncn1 (stereo unspecified) | -10.2
O=C(c1cccnc1-n1cncn1)N1CCN(CC2CC2)CC1 | -7.39
COC(=O)c1ccc(C(=O)NS(=O)(=O)c2cncc(Br)c2)cc1 | -3.96
N#Cc1ccc(C(=O)N2CCn3cc(CN4CCCCC4)nc3C2)cc1 | -11.7
COCC(=O)N1CCc2ncc(Cn3cncn3)n2CC1 | -16.6
C[C@@H]1CN(C(=O)c2cccn2C)C[C@]12CCN(c1ccsc1)C2=O | -13.8
Cc1nc(NCC2CC2)nc2c1COCC21CCN(C(=O)C(C)(C)C)C1 (stereo unspecified) | -18.4
O=C(c1ncccn1)N1CCC[C@]2(C[C@H](OCC3CC3)CO2)C1 | -16.3
O=C(c1ncccn1)N1CCC[C@]2(C[C@@H](OCC3CC3)CO2)C1 | -16.4
O=C(c1ccc(F)c(F)c1)N1CCC[C@]2(C[C@@H](OCC3CC3)CO2)C1 | -12.6
O=C(c1ccncn1)N1CCC[C@]2(C[C@@H](OCC3CC3)CO2)C1 | -13.8
COCC(=O)N1CCC2(CC1)CN(c1cncnc1)C(=O)CO2 | -12
C[C@H]1CN(C(=O)c2ccc[nH]2)C[C@@]12CCN(c1ccsc1)C2=O | -5.02
COCC(=O)N1CC[C@@H]2O[C@@H](C)C[C@H]2C1 | -12.2
COCC(=O)N1CC[C@H]2O[C@@H](C)C[C@H]2C1 | -8.73
O=C(c1ccnnc1)N1CCn2cc(CN3CCCCC3)nc2C1 | -4.84
CC(=O)N1CCOC2(CCCN(C(=O)c3ccc(Cl)cc3)C2)C1 (stereo unspecified) | -15.6

SMILES | cytotoxicity at 70.5 h [%]
CCC1COC2(CCN(C(=O)c3ccco3)CC2)C1 (stereo unspecified) | -9.86
Cc1ccc(C(=O)N2CC[C@H]3[C@H]2CCN3CC2CCOCC2)cn1 | -9.27
Cc1cccc(C(=O)N2CCCn3c(CN4CCCCC4)nnc3C2)c1 | -11.1
Cn1nc(Cn2ccnc2)c2c1CN(C(=O)c1ccc[nH]1)C2 | -10.6
CCN(C)c1ncnc2c1CCN(C(=O)c1cccn1C)CC2 | 21
O=C(c1ccoc1)N1CCCn2nnc(COCC3CC3)c2C1 | -4.24
CNC(=O)[C@@]12CCO[C@@H]1CCN(S(=O)(=O)c1ccc(C)cc1)C2 | -4.45
Cn1cc(C[C@H]2[C@H](N3CCOCC3)CCN2C(=O)c2ccc[nH]2)cn1 | -20.8
O=C(c1cnccn1)N1CC[C@H]2[C@@H]1CCC(=O)N2c1cccnc1 | -17.4
CS(=O)(=O)CC(=O)N1C[C@@H]2CN(Cc3ccoc3)CCO[C@@H]2C1 | -12
Cc1noc([C@@H]2CCO[C@@H]3CCN(Cc4cccs4)C[C@@H]32)n1 | 9.6
Cc1cnc(N2Cc3cnn(Cc4ccc(F)cc4)c3C2)nc1N(C)C | -0.641
Cc1ccc(NC(=O)CNC(C)CN2CCOCC2)c(F)c1 (stereo unspecified) | -9.12
c1cc(CNCc2ccc3c(c2)CCO3)cc(N2CCOCC2)n1 | -9.64
O=C1NC2(CCNCC2)CC1c1ccccc1 (stereo unspecified) | 30.9
O=C1NC2(CCNCC2)CC1c1ccncc1 (stereo unspecified) | 10.1
Cc1cccc(C(=O)N2C[C@@H](C)[C@@]3(CCN(c4ccsc4)C3=O)C2)n1 | -16.4
Cc1ccc(C(=O)N2CC[C@H]3[C@H]2CCN3CC2CCOCC2)cc1F | 3.15
Cc1ccoc1C(=O)N1Cc2c(Cn3ccnc3)nn(C)c2C1 | 20.4
O=C(c1ccccc1F)N1CCCn2c(CN3CCCCC3)nnc2C1 | -6.86
Cc1cccc(COC[C@@H]2CC[C@H]3[C@H](CCN3C(=O)CC3CC3)O2)n1 | -6.33
O=C(c1cccc(Cl)c1)N1CC[C@H]2[C@H]1CCN2CC1CC1 | -9.45
O=C(c1ccccc1)N1CCCn2c(CN3CCCCC3)nnc2C1 | 26.2

SMILES | cytotoxicity at 70.5 h [%]
Cn1ccnc1CN1CCC2(CC1)CN(c1cncnc1)C(=O)CO2 | -3.27
Cn1ccnc1CN1CCC2(CC(=O)N(c3ccsc3)C2)C1 (stereo unspecified) | -8.8
Cc1ccc(N2CC3(CCN(Cc4nccn4C)C3)CC2=O)s1 (stereo unspecified) | -14.5
CCN(C)c1ncnc2c1CCN(CC1CCOC1)CC2 (stereo unspecified) | -8.27
Cn1cc(C(=O)N2CC[C@@H]3[C@@H]2CCN3Cc2ccccc2)cn1 | -15
O=C(c1cscn1)N1CCC2(CCN(Cc3nccs3)CC2)C1 | -23.5
CCN1C(=O)CCC12CCCN(Cc1nccs1)C2 (stereo unspecified) | -13.8
CN1C(=O)CCC12CCCN(Cc1nccs1)C2 (stereo unspecified) | 23.1
CN(Cc1ccccn1)C1CC2(CCN(Cc3ccccn3)CC2)C1 | -10.9
CN(Cc1ccco1)[C@@H]1CN(Cc2ccc(F)cc2)[C@@H]2CCCO[C@H]12 | 6.23
O=C(Cc1ccccn1)N1CCC2(CC1)CN(c1ncccn1)CCO2 | -10.3
COCC1CN(C(=O)Cc2ccccn2)Cc2c1cnn2CC1CC1 (stereo unspecified) | -13.1
Cc1noc(C)c1CN1C[C@@H](N(C)Cc2ccco2)[C@H]2OCCC[C@H]21 | -6.48
Cc1noc(C)c1CN1CCN(C)c2ncccc2C1 | -5.95
Cn1ccnc1CN1CCC2(CC(=O)N(c3ccccn3)C2)C1 (stereo unspecified) | -10.7
O=C(NCc1ccccn1)[C@@H]1CC[C@@H]2[C@@H](CCN2c2ncc(F)cn2)O1 | -11.3
Cn1cc(C(=O)N2CC[C@@H]3[C@@H]2CCN3Cc2ccncc2)cn1 | -12.1
COc1ccc(CN2C[C@@H]3OCCN(CCN4CCCC4)[C@@H]3C2)cc1 | 11.2
CCCc1ccc(C(=O)N2Cc3c(Cn4ccnc4)nn(C)c3C2)cc1 | -8.3
